Assay results published in publication PMC5809175 (Investigational new drugs, 2016).

Columns and labels:
[1] = Phase I 3 + 3 dose escalation and expansion: DLT, MTD and RP2D; format: in vivo, human; details: extensive CYP2C19 metabolizers
[2] = clinical; details: human, in vivo
[3] = cited from earlier work
[4] = tested on: hepatocellular carcinoma; details: patients with hepatocellular carcinoma, p=0.04, cited from earlier work
[5] = tested on: CYP2C19 and CYP3A4/5; details: cited from earlier work
[6] = tested on: CYP3A4; details: cited from earlier work

Row | SMILES | MTD and RP2D, tivantinib ([1]; oral, in combination with temsirolimus) [mg twice daily] | Dose adjusted AUC0–12, geometric mean [2] [ng·h/mL/mg] | Dose adjusted Cmax, geometric mean [2] [ng/mL/mg] | RP2D in CYP2C19 poor metabolizers [3] [mg twice daily] | time to progression, HR vs placebo ([4]; 90% CI 0.43–0.94) | time to progression ([4]; placebo 1.4 months) [months] | metabolizing enzymes [5] | MTD and RP2D, temsirolimus ([1]; intravenous, in combination with tivantinib) [mg weekly] | AUC0–∞, ratio (%) geometric means [2] [%] | Cmax, ratio (%) geometric means [2] [%] | AUC(0-inf) ([2]; AUC0–∞, geometric mean) [ng·h/mL] | Cmax ([2]; Cmax, geometric mean) [ng/mL] | metabolizing enzymes [6]
1 | O=C1NC(=O)[C@@H](c2cn3c4c(cccc24)CCC3)[C@@H]1c1c[nH]c2ccccc12 [tivantinib] | 240 | 67.78 | 9.27 | 240 | 0.64 | 1.6 | metabolized primarily by CYP2C19 and partially by CYP3A4/5 |  |  |  |  |  | 
2 | CO[C@H]1C[C@@H]2CC[C@@H](C)[C@@](O)(O2)C(=O)C(=O)N2CCCC[C@H]2C(=O)O[C@H]([C@H](C)C[C@@H]2CC[C@@H](OC(=O)C(C)(CO)CO)[C@H](OC)C2)CC(=O)[C@H](C)/C=C(\C)[C@@H](O)[C@@H](OC)C(=O)[C@H](C)C[C@H](C)/C=C/C=C/C=C/1C [temsirolimus] |  |  |  |  |  |  |  | 20 | 1.09 | 0.94 | 1340 | 363 | primarily metabolized by CYP3A4
